From publication PMC6332004, “Transport of Twelve Coumarins from Angelicae Pubescentis Radix across a MDCK-pHaMDR Cell Monolayer—An in Vitro Model for Blood-Brain Barrier Permeability” (Molecules, 2015) come the findings set out here.

Where two headings read alike, the source gives them in different places.

Data set [1] in a line: in vitro. The following applies: dog, MDCK-MDR1, pH 7.4.
Method: (§1) 10 mM stock solutions of test compounds were prepared in DMSO and diluted with HBSS to the desired concentrations before transport experiments. HBSS (pH 7.4) was used as a transport medium. After washing the MDCK-pHaMDR cell monolayer twice with prewarmed HBSS medium, HBSS medium was preserved to prepare samples of the calibration curves. Then the experiments were carried out by replacing the transport medium in the AP side (0.5 mL, for absorption transport) or BL side (1.5 mL, for efflux transport) with test compounds (50 µM). The plates were shaked at 55 rpm for 90 min at 37 °C in a water bath. Samples were collected from both sides of the cell monolayer, then immediately frozen, lyophilized and preserved below −20 °C. To measure the intracellular accumulation amounts of different coumarins, the cell monolayers were extracted after transport assays with 200 µL 70% MeOH (v/v) for 20 min, then centrifuged and preserved below −20 °C.
(§2) An Agilent 1100 series HPLC system (Agilent Technologies, Palo Alto, CA, USA) was used with an analytical Diamonsil® C18 column (250 mm × 4.6 mm, 5 µm, Dikma, Beijing, China) equipped with a C18 guard column (8 mm × 4 mm, 5 µm, Dikma). […] The flow rate was 1.0 mL/min. Elution peaks were monitored and the peak areas were used to calculate the compound concentrations.
(§3) Papp in AP-BL or BL-AP direction of each coumarin was calculated from the following equation: (2) Papp=dQ/dt·A·C0 [cm/s] where Q is the accumulation quantity of the compound in the receiver side (μmol), dQ/dt is the linear appearance rate of the compound in the receiver side (μmol/s), C0 is the initial concentration in the donor side (μM), and A is the surface area of the membrane insert (cm^2). Data were expressed as the mean ± SD.
For data set [2], the system named is MDCK-pHaMDR cell monolayer. Briefly: Cell accumulation and total recovery of coumarins in the bidirectional transport experiment. The following applies: 50 µM, 90 min, percent of initial amount, n = 6.
Method: as §1
(§4) To determine the corresponding coumarins, the lyophilized permeation samples were dissolved in a suitable volume of MeOH, thoroughly vortex-mixed for 1 min and then centrifuged at 16,000× g for 20 min. An aliquot of 20 µL supernatant solution was used for HPLC assay. To measure the intracellular accumulation amount of different coumarins, the aliquots of cell extractions were determined too.
(§5) CA (Cell accumulation): the percent of the coumarins that accumulated in the cell monolayer after transport
(§6) experiment relative to the initial amount. TR (Total recovery): the percent of the total amount of the coumarins
(§7) recovered from both sides of the inserts and intracellular accumulation in MDCK-pHaMDR cell monolayer
(§8) relative to the initial amount. N.D.: not detected. The concentration of all coumarins was 50 µM.
(§9) incubation time was up to 90 min. Data are means ± S.D. (n = 6).
Assay in data set [3]: as above
The following applies: dog.
Method: as §1, §4, §5, §6, §7, §8, §9

Data set [4] concerns MDCK-pHaMDR cell monolayer. The conditions noted are these: dog, 90 min, 50 µM, pH 7.4.
Method: as §1, §4, §5, §6, §7, §8, §9
Data set [5] deals with MDCK-pHaMDR cell monolayer. As to the kind of experiment: Bidirectional transport across MDCK-pHaMDR cell monolayer (in vitro BBB model). The conditions noted are these: AP to BL; coumarins 50 µM, caffeine 10 µM, atenolol 200 µM; 90 min; mean ± S.D., n = 6.
Method: as §1, §2, §3
Data set [6] concerns P-gp. Briefly: Rh123 intracellular accumulation in MDCK-pHaMDR cells with or without verapamil. The following applies: Rh123 10 µM. Type of data set: cell-based. The protocol: The fluorescence at 485 nm (excitation wavelength) and 538 nm (emission wavelength) was determined on a Cary Eclipse Fluorescence spectrophotometer (Varian Inc., Palo Alto, CA, USA). To investigate intracellular accumulations of Rh123 as a probe substrate for P-gp, MDCK-pHaMDR cells were seeded on the 6 Wells plates at a density of about 1.0 × 10^5 cells/mL and grew for 48 h. Before the uptake experiments, cells were washed with PBS two times and pre-incubated with serum-free DMEM or 100 µM verapamil for 20 min. Rh123 with the final concentration of 10 µM was added, and cells were incubated with or without the presence of verapamil for 60 min at 37 °C. Then cells were washed with ice-cold PBS three times, and lysed with 0.1% (v/v) Triton X-100 for 15 min at 37 °C [33]. The fluorescence of Rh123 in cell lysates was determined as described above.

The subject of data set [7] is P-gp. As to the kind of experiment: in vitro. The conditions noted are these: dog, not told.
Method: The P-gp expression level in the MDCK-pHaMDR cell monolayer was examined by Rh123 transport and intracellular accumulation experiments. Rh123 (10 µM) bidirectional transports with or without the presence of verapamil (100 µM) were undertaken as described above, and the lyophilized permeation samples were dissolved in a proper volume of MeOH. The fluorescence at 485 nm (excitation wavelength) and 538 nm (emission wavelength) was determined on a Cary Eclipse Fluorescence spectrophotometer (Varian Inc., Palo Alto, CA, USA).
Where [8] appears, read: MDCK-pHaMDR cell monolayer, pH 7.4, TR (Total recovery) AP→BL, AP→BL, 50 µM, 90 min, percent of initial amount, n = 6.
[9] abbreviates: MDCK-pHaMDR cell monolayer, pH 7.4, TR (Total recovery) BL→AP, BL→AP, 50 µM, 90 min, percent of initial amount, n = 6.

On to `C/C=C(/C)C(=O)OC(C)(C)[C@@H]1Cc2c(ccc3ccc(=O)oc23)O1` [Compound 11, columbianadin], for which, in data set [1], the Papp A→B (as a rule, how fast a substance crosses the layer from the apical side) at 90 min was determined as 10.4 ± 0.95 ×10⁻⁶ cm/s and the apparent permeability from basolateral to apical (Papp B→A) (usually how fast a substance crosses the layer from the basolateral side) at 90 min, 50 µM was 7.12 ± 0.12 ×10⁻⁶ cm/s. Besides, in data set [2], the “CA (Cell accumulation) AP→BL” value was determined as 21.49 ± 4.56% and the “CA (Cell accumulation) BL→AP” value came out at 9.44 ± 1.01%. The same compound had a recovery at 90 min, 50 µM in data set [3] (setting [8]) of 67.6 ± 5%. Also, the recovery at 90 min, 50 µM in data set [3] (setting [9]) is 64.1 ± 3.63%. Further, the recovery at 90 min, 50 µM in data set [3] (MDCK-pHaMDR cell monolayer, pH 7.4, recovery (both sides of the insert and intracellular), both directions) fell in the range of 64 to 68%.

On to `COc1c2occc2cc2ccc(=O)oc12` [Compound 8, xanthotoxin], for which the recovery at 90 min, 50 µM in data set [3] (pH 7.4, TR (Total recovery) AP→BL, AP→BL, 50 µM, 90 min, percent of initial amount, n = 6) amounted to 95.2 ± 4.79%; in data set [3] (pH 7.4, TR (Total recovery) BL→AP, BL→AP, 50 µM, 90 min, percent of initial amount, n = 6), 88.7 ± 3.13%.

Regarding `COc1c2ccoc2cc2oc(=O)ccc12` [Compound 9, bergapten], in data set [1], the apical-to-basolateral permeability (Papp A→B) at 90 min stood at 43.6 ± 2.13 ×10⁻⁶ cm/s; the Papp B→A at 90 min, 50 µM is 37.4 ± 5.81 ×10⁻⁶ cm/s; the efflux ratio (usually a quotient of directional permeabilities that is used to spot active efflux) at 90 min, 50 µM amounted to 0.86. This compound also had a recovery at 90 min, 50 µM in data set [3] (setting [8]) of 99.15 ± 0.54%. Also, in data set [3] (setting [9]), the recovery at 90 min, 50 µM was 107 ± 1.19%.

In data set [1], `CC(C)=CCOc1c2ccoc2cc2oc(=O)ccc12` [Compound 10, isoimperatorin] showed an apical-to-basolateral permeability (Papp A→B) at 90 min of 7.29 ± 0.17 ×10⁻⁶ cm/s and a Papp B→A at 90 min, 50 µM of 3.73 ± 0.33 ×10⁻⁶ cm/s. For the same compound, in data set [2], the “CA (Cell accumulation) AP→BL” value came out at 5.38 ± 1.14% and the “CA (Cell accumulation) BL→AP” value is 1.65 ± 0.36%. The compound further gave a recovery at 90 min, 50 µM in data set [3] (setting [8]) of 90.2 ± 3.08%. For the same compound, the recovery at 90 min, 50 µM in data set [3] (setting [9]) was found to be 86.6 ± 2.89%.

For `COc1cc2ccc(=O)oc2cc1O` [Compound 3, scopoletin], in data set [1], the apparent permeability from apical to basolateral (Papp A→B) at 90 min is 37.1 ± 1.97 ×10⁻⁶ cm/s; the Papp B→A at 90 min, 50 µM came to 27.4 ± 3.51 ×10⁻⁶ cm/s; the efflux ratio at 90 min, 50 µM was 0.96. In data set [3] (setting [8]), the recovery at 90 min, 50 µM turned out to be 87.5 ± 3.3%. The compound also returned a recovery at 90 min, 50 µM in data set [3] (setting [9]) of 92.2 ± 3.16%.

In data set [1], `O=c1ccc2ccc(O)cc2o1` [Compound 1, umbelliferone] returned a Papp A→B at 90 min of 35.9 ± 2.28 ×10⁻⁶ cm/s and a basolateral-to-apical permeability (Papp B→A) at 90 min, 50 µM of 32.8 ± 1.25 ×10⁻⁶ cm/s. This compound showed a recovery at 90 min, 50 µM in data set [3] (setting [8]) of 99.3 ± 1.59%. This compound also yielded a recovery at 90 min, 50 µM in data set [3] (setting [9]) of 96.7 ± 3.22%.

Regarding `O=c1ccc2cc3ccoc3cc2o1` [Compound 7, psoralen], in data set [1], the Papp A→B at 90 min came out at 27.3 ± 2.35 ×10⁻⁶ cm/s; the Papp B→A at 90 min, 50 µM came out at 26.8 ± 2.75 ×10⁻⁶ cm/s; the efflux ratio at 90 min, 50 µM is 0.98. For the same compound, in data set [2], the “CA (Cell accumulation) AP→BL” value came to 4.63 ± 0.13% and the “CA (Cell accumulation) BL→AP” value is 1.79 ± 0.03%. Moreover, the recovery at 90 min, 50 µM in data set [3] (setting [8]) was 89.9 ± 6.49%. Further, the recovery at 90 min, 50 µM in data set [3] (setting [9]) amounted to 94.7 ± 3.85%.

As for `COc1ccc2ccc(=O)oc2c1CC=C(C)C` [Compound 2, osthol], in data set [4], the “CA (Cell accumulation) AP→BL” value is given as 6.96 ± 1.50% and the “CA (Cell accumulation) BL→AP” value is 3.51 ± 0.68%. For the same compound, in data set [1], the Papp A→B at 90 min was determined as 23.8 ± 1.44 ×10⁻⁶ cm/s and the Papp B→A at 90 min, 50 µM was 20.4 ± 3.04 ×10⁻⁶ cm/s. In data set [3] (setting [8]), this compound had a recovery at 90 min, 50 µM of 105 ± 5.15%. The compound further came in with a recovery at 90 min, 50 µM in data set [3] (setting [9]) of 95.6 ± 1.75%.

In the case of `Cn1c(=O)c2c(ncn2C)n(C)c1=O` [caffeine, reference compound], the “Papp AP-BL” value in data set [5] is 43.58 ± 4.86 ×10^−6 cm/s. In addition, the apparent permeability from apical to basolateral (Papp A→B) at 90 min in data set [1] was found to be 43.6 ×10⁻⁶ cm/s.

For `COC(=O)c1ccccc1-c1c2ccc(=N)cc-2oc2cc(N)ccc12` [Rh123, Rhodamine 123], the “intracellular accumulation with verapamil relative to verapamil-absent group” value in data set [6] (100 µM verapamil) is given as 4.45 fold. In addition, the “Intracellular Accumulation Fluorescence Intensity” value in data set [6] (60 min, without verapamil, n = 4) is 34.51 ± 1.18. Besides, in data set [7] (pH 7.4), the apical-to-basolateral permeability (Papp A→B) at 90 min, 10 µM was 1.18 ± 0.056 ×10⁻⁶ cm/s; the basolateral-to-apical permeability (Papp B→A) at 90 min, 10 µM stood at 5.27 ± 0.209 ×10⁻⁶ cm/s; the efflux ratio at 90 min, 10 µM was 4.47 ± 0.24. Also, the efflux ratio at 90 min, 10 µM in data set [7] (pH 7.4, with verapamil 100 µM) stood at 1.58.
